Data published in PubChem BioAssay (NCI).
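Briefly, cells in 96-well plates were exposed to five compound concentrations for 48 h, and endpoints were estimated by linear interpolation. Abbreviation: GI50, concentration required for 50% inhibition of growth. Definition used: TGI = concentration required for complete inhibition of growth.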

Columns and labels:
Assay in all cases: growth of human tumour cells (NCI), 48 h
786-0 renal = system: 786-0 renal
DU-145 prostate = system: DU-145 prostate
HOP-62 NSCLC = system: HOP-62 NSCLC
HS 578T breast = system: HS 578T breast
MALME-3M melanoma = system: MALME-3M melanoma
MDA-MB-231 breast = system: MDA-MB-231 breast
OVCAR-3 ovarian = system: OVCAR-3 ovarian
OVCAR-4 ovarian = system: OVCAR-4 ovarian
T-47D breast = system: T-47D breast
UO-31 renal = system: UO-31 renal

CCN(Cc1c(F)cccc1C(F)(F)F)c1ccc(CO)c(Cl)c1
GI50 (786-0 renal): 15.9 µM | TGI (786-0 renal): 30.9 µM | GI50 (DU-145 prostate): 15.9 µM | TGI (DU-145 prostate): 29.8 µM | GI50 (HOP-62 NSCLC): 13.7 µM | TGI (HOP-62 NSCLC): 26.6 µM | GI50 (HS 578T breast): 18.3 µM | TGI (HS 578T breast): 42.1 µM | GI50 (MALME-3M melanoma): 15.2 µM | TGI (MALME-3M melanoma): 30.1 µM | GI50 (MDA-MB-231 breast): 14.6 µM | TGI (MDA-MB-231 breast): 28.3 µM | GI50 (OVCAR-3 ovarian): 0.261 µM | TGI (OVCAR-3 ovarian): 4.9 µM | GI50 (OVCAR-4 ovarian): 0.132 µM | TGI (OVCAR-4 ovarian): 9.9 µM | GI50 (T-47D breast): < 0.0249 µM | TGI (T-47D breast): 0.285 µM | GI50 (UO-31 renal): 14.6 µM | TGI (UO-31 renal): 28.3 µM

O=C(COc1ccc(Cl)cc1Cl)NNc1ccc([N+](=O)[O-])cc1
GI50 (786-0 renal): 25.6 µM | TGI (786-0 renal): 61.2 µM | GI50 (DU-145 prostate): 53.3 µM | TGI (DU-145 prostate): > 100 µM | GI50 (HOP-62 NSCLC): 19.7 µM | TGI (HOP-62 NSCLC): 38.6 µM | GI50 (HS 578T breast): 25.6 µM | TGI (HS 578T breast): 95.4 µM | GI50 (MALME-3M melanoma): 23.6 µM | TGI (MALME-3M melanoma): 57.1 µM | GI50 (MDA-MB-231 breast): 30.8 µM | TGI (MDA-MB-231 breast): > 100 µM | GI50 (OVCAR-3 ovarian): > 100 µM | TGI (OVCAR-3 ovarian): > 100 µM | GI50 (OVCAR-4 ovarian): > 100 µM | TGI (OVCAR-4 ovarian): > 100 µM | GI50 (T-47D breast): 43.3 µM | TGI (T-47D breast): > 100 µM | GI50 (UO-31 renal): > 100 µM | TGI (UO-31 renal): > 100 µM

COc1cc(/C=C/[N+](=O)[O-])cc(OC)c1
GI50 (786-0 renal): 1.74 µM | TGI (786-0 renal): 3.31 µM | GI50 (DU-145 prostate): 1.97 µM | TGI (DU-145 prostate): 4.03 µM | GI50 (HOP-62 NSCLC): 2.93 µM | TGI (HOP-62 NSCLC): 10.4 µM | GI50 (HS 578T breast): 4.11 µM | TGI (HS 578T breast): 23.3 µM | GI50 (MALME-3M melanoma): 3.29 µM | TGI (MALME-3M melanoma): 10.4 µM | GI50 (MDA-MB-231 breast): 2.72 µM | TGI (MDA-MB-231 breast): 8.48 µM | GI50 (OVCAR-3 ovarian): 1.56 µM | TGI (OVCAR-3 ovarian): 3.07 µM | GI50 (OVCAR-4 ovarian): 4.87 µM | TGI (OVCAR-4 ovarian): 17.3 µM | GI50 (T-47D breast): 2.17 µM | TGI (T-47D breast): 7.03 µM | GI50 (UO-31 renal): 1.78 µM | TGI (UO-31 renal): 3.4 µM

O=C(Nc1c(Cl)cccc1Cl)Oc1cccc2cccnc12
GI50 (786-0 renal): 7.4 µM | TGI (786-0 renal): > 100 µM | GI50 (DU-145 prostate): 11.7 µM | TGI (DU-145 prostate): > 100 µM | GI50 (HOP-62 NSCLC): 5.63 µM | TGI (HOP-62 NSCLC): 21 µM | GI50 (HS 578T breast): 10.9 µM | TGI (HS 578T breast): 66.1 µM | GI50 (MALME-3M melanoma): 6.19 µM | TGI (MALME-3M melanoma): 81 µM | GI50 (MDA-MB-231 breast): 4.24 µM | TGI (MDA-MB-231 breast): 25.3 µM | GI50 (OVCAR-3 ovarian): 3.64 µM | TGI (OVCAR-3 ovarian): > 100 µM | GI50 (OVCAR-4 ovarian): 2.9 µM | TGI (OVCAR-4 ovarian): 14 µM | GI50 (T-47D breast): 3.29 µM | TGI (T-47D breast): 14.5 µM | GI50 (UO-31 renal): 2.74 µM | TGI (UO-31 renal): 51.8 µM

O=C1NC(=O)/C(=C/c2ccc3nccc(-c4ccncc4)c3c2)S1
GI50 (786-0 renal): 0.345 µM | TGI (786-0 renal): 3.15 µM | GI50 (DU-145 prostate): 0.431 µM | TGI (DU-145 prostate): > 5.79 µM | GI50 (HOP-62 NSCLC): 0.359 µM | TGI (HOP-62 NSCLC): 4.26 µM | GI50 (HS 578T breast): 0.119 µM | TGI (HS 578T breast): 0.54 µM | GI50 (MALME-3M melanoma): 0.288 µM | TGI (MALME-3M melanoma): 2.12 µM | GI50 (MDA-MB-231 breast): 0.387 µM | TGI (MDA-MB-231 breast): 3.92 µM | GI50 (OVCAR-3 ovarian): 0.252 µM | TGI (OVCAR-3 ovarian): 2.07 µM | GI50 (OVCAR-4 ovarian): 0.503 µM | TGI (OVCAR-4 ovarian): 5.89 µM | GI50 (T-47D breast): 0.0497 µM | TGI (T-47D breast): 0.432 µM | GI50 (UO-31 renal): 0.14 µM | TGI (UO-31 renal): 1.05 µM

COC(=O)C1(N2CCOCC2)CCC([C@@H](c2ccccc2)C(C)[N+](=O)[O-])C1 (some centres undefined)
TGI (786-0 renal): > 100 µM | TGI (DU-145 prostate): 59.6 µM | TGI (HOP-62 NSCLC): > 100 µM | TGI (HS 578T breast): > 100 µM | TGI (MALME-3M melanoma): > 100 µM | TGI (MDA-MB-231 breast): > 100 µM | TGI (OVCAR-3 ovarian): 71.3 µM | TGI (OVCAR-4 ovarian): > 100 µM | TGI (T-47D breast): 9.62 µM | TGI (UO-31 renal): > 100 µM

O=[N+]([O-])c1ccc(NC(c2ccccc2)c2ccc3cccnc3c2O)cc1 (centres undefined)
GI50 (786-0 renal): 0.363 µM | GI50 (DU-145 prostate): 0.483 µM | TGI (DU-145 prostate): > 100 µM | GI50 (HOP-62 NSCLC): 0.537 µM | TGI (HOP-62 NSCLC): > 100 µM | GI50 (HS 578T breast): 0.52 µM | TGI (HS 578T breast): > 100 µM | GI50 (MALME-3M melanoma): 0.826 µM | TGI (MALME-3M melanoma): > 100 µM | GI50 (MDA-MB-231 breast): 0.696 µM | TGI (MDA-MB-231 breast): > 100 µM | GI50 (OVCAR-3 ovarian): 0.45 µM | TGI (OVCAR-3 ovarian): > 100 µM | GI50 (OVCAR-4 ovarian): 0.331 µM | TGI (OVCAR-4 ovarian): > 100 µM | GI50 (T-47D breast): 0.633 µM | TGI (T-47D breast): > 100 µM | GI50 (UO-31 renal): 0.297 µM | TGI (UO-31 renal): > 31.4 µM

COc1cc2cc(C(=O)Nc3ccccc3)c(N)nc2cc1OC
GI50 (786-0 renal): 31.7 µM | TGI (786-0 renal): > 100 µM | GI50 (DU-145 prostate): 80.3 µM | TGI (DU-145 prostate): > 100 µM | GI50 (HOP-62 NSCLC): 62.6 µM | TGI (HOP-62 NSCLC): > 100 µM | GI50 (HS 578T breast): 62.8 µM | TGI (HS 578T breast): > 100 µM | GI50 (MALME-3M melanoma): 44.3 µM | TGI (MALME-3M melanoma): > 100 µM | GI50 (MDA-MB-231 breast): 59.6 µM | TGI (MDA-MB-231 breast): > 100 µM | GI50 (OVCAR-3 ovarian): 50.9 µM | TGI (OVCAR-3 ovarian): > 100 µM | GI50 (OVCAR-4 ovarian): 29.8 µM | TGI (OVCAR-4 ovarian): > 100 µM | GI50 (T-47D breast): 23.6 µM | TGI (T-47D breast): > 100 µM | GI50 (UO-31 renal): 25.7 µM | TGI (UO-31 renal): > 100 µM
